In patent publication US20230172204A1 (BASF SE, priority 2020, published 2023):

Key:
[1] = test system: Phakopsora pachyrhizi (F129L); assay: Protective control of soybean rust on soybeans (PHAKPA P2); format: in vivo; details: for % PHAKPA (F129L) Disease level P2 at 4 ppm: protective P2, 4 ppm; for % PHAKPA (F129L) Disease level P2 at 4 ppm / % PHAKPA (F129L) Disease level P2 at 16 ppm: soybean rust F129L; for % PHAKPA (F129L) Disease level P2 at 16 ppm: protective P2, 16 ppm
[2] = test system: Phakopsora pachyrhizi (F129L); assay: Protective control of soybean rust on soybeans (PHAKPA P6); format: in vivo; details: for PHAKPA (F129L) Disease level (%) P6 at 4 ppm / PHAKPA (F129L) Disease level (%) P6 at 16 ppm: P6 protective, % diseased leaf area; for % PHAKPA (F129L) Disease level P6 at 4 ppm: protective P6, 4 ppm; for % PHAKPA (F129L) Disease level P6 at 4 ppm / % PHAKPA (F129L) Disease level P6 at 16 ppm: soybean rust F129L; for % PHAKPA (F129L) Disease level P6 at 16 ppm: protective P6, 16 ppm
[3] = P2 protective, % diseased leaf area

Row | SMILES | PHAKPA (F129L) Disease level (%) P2 at 1 ppm ([1]; P2 protective, 1 ppm, % diseased leaf area) [%] | PHAKPA (F129L) Disease level (%) P6 at 4 ppm [2] [%] | % PHAKPA (F129L) Disease level P2 at 4 ppm [1] [%] | % PHAKPA (F129L) Disease level P2 at 16 ppm [1] [%] | % PHAKPA (F129L) Disease level P6 at 4 ppm [2] [%] | % PHAKPA (F129L) Disease level P6 at 16 ppm [2] [%] | PHAKPA (F129L) Disease level (%) P2 at 4 ppm [1, 3] [%] | PHAKPA (F129L) Disease level (%) P6 at 16 ppm [2] [%] | PHAKPA (F129L) Disease level (%) P2 at 16 ppm [1, 3] [%]
1 | CNC(=O)/C(=N/OC)c1cccc(C)c1CO/N=C(\SC)c1cccc(C(F)(F)F)c1 [drawing 984, reference compound] | 32 | 43 | – | – | – | – | – | – | –
2 | C#Cc1ccc(/C(C)=N/OCc2c(C)cccc2/C(=N\OC)C(=O)NC)cc1 [compound 196] | – | – | 1 | 0 | 11 | 5 | – | – | –
3 | CNC(=O)/C(=N/OC)c1cccc(C)c1CO/N=C(\C)c1ccc(C(F)(F)F)cc1 [compound 39] | – | – | 30 | 4 | 15 | 2 | – | – | –
4 | CNC(=O)/C(=N/OC)c1cccc(C)c1CO/N=C(\SC)c1cccc(Cl)c1 [drawing 979, reference compound] | – | – | – | – | – | – | 20 | 9 | –
5 | CO/N=C(/C(=O)OC)c1cccc(C)c1CO/N=C(\C)c1c(F)cc(Br)cc1C(F)(F)F [compound 368] | – | – | 83 | 47 | 90 | 73 | – | – | –
6 | CC/C(=N\OCc1ccccc1/C(=N\OC)C(=O)NC)c1cccc(C(F)(F)F)c1 [reference compound] | – | 70 | – | – | – | – | 60 | – | –
7 | CNC(=O)/C(=N/OC)c1cccc(C)c1CO/N=C(\C)c1c(Cl)ccc(F)c1OC(F)(F)F [compound 440] | – | – | 93 | 23 | 73 | 23 | – | – | –
8 | CO/N=C(/C(=O)OC)c1cccc(C)c1CO/N=C(\C)c1c(F)cccc1F [compound 213] | – | – | 50 | 3 | 40 | 11 | – | – | –
9 | CO/N=C(/C(=O)OC)c1cccc(C)c1CO/N=C(/c1cccc(Cl)c1)C1CC1 [drawing 981, reference compound] | – | – | – | – | – | – | 83 | 87 | –
10 | CO/N=C(/C(=O)OC)c1cccc(C)c1CO/N=C(\C)c1cccc(OC)c1 [compound 78] | – | – | 40 | 1 | 30 | 1 | – | – | –
11 | CNC(=O)/C(=N/OC)c1ccccc1CO/N=C(\C)c1ccc(C#N)cc1 [reference compound] | – | – | – | – | – | – | – | 63 | 37
12 | C=C(C)c1cccc(/C(=N\OC)C(=O)NC)c1CO/N=C(\C)c1ccccc1 [compound 399] | – | – | 67 | 8 | 90 | 15 | – | – | –
13 | CNC(=O)/C(=N/OC)c1cccc(C)c1CO/N=C(\C)c1ccccc1C(C)C [compound 220] | – | – | 90 | 30 | 100 | 77 | – | – | –
14 | CO/N=C(/C(=O)OC)c1cccc(C)c1CO/N=C(\C)c1ccc(C)cc1 [Ex. 5, Methyl (2E)-2-methoxyimino-2-[3-methyl-2-[[(E)-1-(p-tolyl)ethylideneamino]oxymethyl]phenyl]acetate] | – | – | 28 | 1 | 50 | 4 | – | 4 | 1
15 | CNC(=O)/C(=N/OC)c1cccc(C)c1CO/N=C(/c1ccccc1)C(F)F [Ex. 73] | – | 37 | 0 | – | 19 | – | 1 | – | –
16 | CNC(=O)/C(=N/OC)c1cccc(C)c1CO/N=C(\C)c1cc(Cl)cc(C(F)(F)F)c1 [compound 228] | – | – | 5 | 0 | 22 | 2 | – | – | –
17 | CNC(=O)/C(=N/OC)c1cccc(C)c1CO/N=C(\C)c1ccc(-c2ccccc2)cc1C(F)(F)F [compound 413] | – | – | 40 | 15 | 33 | 15 | – | – | –
18 | CNC(=O)/C(=N/OC)c1cccc(C)c1CO/N=C(\C)c1ccc(F)cc1F [compound 267] | – | – | 2 | 0 | 10 | 4 | – | – | –
19 | CO/N=C(/C(=O)OC)c1cccc(C)c1CO/N=C(\C)c1cc(F)ccc1C(F)(F)F [compound 249] | – | – | 87 | 37 | 90 | 43 | – | – | –
20 | CO/N=C(/C(=O)OC)c1ccccc1CO/N=C(\C)c1cccc(C)c1 [reference compound] | – | – | – | – | – | – | – | 83 | 93
21 | CO/N=C(/C(=O)OC)c1cccc(CF)c1CO/N=C(\C)c1cccc(C(F)(F)F)c1 [compound 25] | – | – | 16 | 3 | 50 | 2 | – | – | –
22 | C#Cc1cc(C#C)cc(/C(C)=N/OCc2c(C)cccc2/C(=N\OC)C(=O)NC)c1 [compound 193] | – | – | 15 | 0 | 14 | 0 | – | – | –
23 | CNC(=O)/C(=N/OC)c1cccc(C)c1CO/N=C(/c1ccccc1)C(F)(F)F [compound 458] | – | – | 93 | 57 | 83 | 50 | – | – | –
